Measured values: patent publication US8530680B2, “System and method for controlling growth of microorganisms with brominated furanones” (Syracuse University, priority 2008, dated 2013)

Tests used:
[1] = test system: P. aeruginosa strain PAO1; assay: Microplate based planktonic growth assay of P. aeruginosa; format: cell-based, Pseudomonas aeruginosa; details: for reduction of specific growth rate compared to furanone-free control: planktonic growth
Method: The antimicrobial activities of furanones on the planktonic growth of P. aeruginosa strain PAO1 was examined using a microplate based growth assay. An overnight culture of the strain grown in LB medium at 30° C. was used to inoculate M63 minimal medium supplemented with furanones at 0, 30 or 60 μg/mL to an optical density at 600 nm (OD600) of 0.05 in 96-well plates. The plates were then incubated at 30° C. with shaking at 200 rpm. The reading of OD600 was measured every 60 minutes for six hours using a microplate reader (ELx808, BioTek Instruments). Six replicates were tested for every sample. The synthesis of the brominated furanones, the structures of which are shown in FIGS. 1A and 1B, was according to Example 1.

[2] = test system: P. aeruginosa strain PAO1 biofilm formation; assay: Microplate-based biofilm assay (crystal violet, OD540) of P. aeruginosa; format: cell-based, Pseudomonas aeruginosa; details: 24 hours
Method: A microplate-based biofilm assay was used to further investigate whether furanones inhibit biofilm formation of P. aeruginosa strain PAO1. For this biofilm assay the strain was grown at 30° C. without shaking in M63 minimal medium containing 13.6 g/L KH2PO4, 2 g/L (NH4)2SO4, 0.5 mg/L FeSO4, 0.12 g/L MgSO4, 5 g/L vitamin free casamino acids and 5 g/L glucose (pH 7.0). The synthesis of the brominated furanones, the structures of which are shown in FIGS. 1A and 1B, was according to Example 1.
The overnight culture of P. aeruginosa was used to inoculate fresh M63 medium supplemented with furanones (0, 30 or 60 μg/mL) to an OD600 of 0.05 in 96-well plates. Four replicates were tested for each condition. The plates were incubated at 30° C. without shaking for 24 hours. The biofilm mass was quantified by following the protocol described previously. Briefly, the planktonic cells were carefully removed by pipetting and the plates with biofilms were washed three times with deionized H2O and dried by gently patting on a piece of paper towel. To quantify biofilms, the plates were stained with 0.1% crystal violet and incubated for 20 minutes at room temperature. The plates were then washed three times with deionized H2O to remove extra dyes. An OD540 was measured to quantify the biofilm on the bottom of each well.

[3] = test system: Gloeophyllum trabeum strain GT598; assay: Fungal growth on MEA plates with furanone; format: cell-based; design: key to growth on plate, GT598: −: No growth was observed; +: normal growth was seen; details: for growth inhibition test, inhibitory concentration, GT598: tested at 1, 5, 30, 60 μg/mL, 7 days; for growth on plate, GT598: 60 μg/mL, 7 days at 30° C.
Method: (§1) This Example examines the effect of brominated furanones on the growth of fungi associated with damage to building material. Six fungal strains were the subject of these experiments; Gloeophyllum trabeum (strains GT598 and GT599), Chaetomium globosum (wildtype strain and CG572), and Trametes versicolor (strains TV7B2-59 and TV57MAD277). The species were developed on 2% Malt-Extract Agar (MEA) plates and stored inverted at 4° C. The stocks were refreshed by streaking new plates every two months.
(§2) The brominated and non-brominated furanones were added to MAE agar plates at different concentrations. The brominated furanones were dissolved in either ethanol (“EtOH”) or methanol (“MeOH”) as stock solutions, as shown in Table 5. The non-brominated furanones were purchased from Sigma (St. Louis, Mo.). The furanone stocks were stored at 4° C.
(§3) MAE agar plates containing the same amounts of ethanol/methanol were also prepared as negative controls to eliminate any solvent effects. The plates were prepared using either 90 mm or 60 mm petri dishes and were stored inverted at 4° C. until use.
(§4) Different concentrations of furanones were studied to compare their antifungal activities. The plates were inoculated with the six fungal strains using a platinum loop and were incubated upside down at 30° C. for 7 days to monitor the growth. The initial screening was performed using a single 60 μg/mL furanone concentration.

[4] = test system: Gloeophyllum trabeum strain GT599; assay: Fungal growth on MEA plates with furanone; format: cell-based; design: key to growth on plate, GT599: −: No growth was observed; +: normal growth was seen; details: for growth inhibition test, inhibitory concentration, GT599: tested at 1, 5, 30, 60 μg/mL, 7 days; for growth on plate, GT599: 60 μg/mL, 7 days at 30° C.
Method: as §1, §2, §3, §4

[5] = test system: Chaetomium globosum wildtype strain (CG); assay: Fungal growth on MEA plates with furanone; format: cell-based; design: key to growth on plate, CG: −: No growth was observed; +: normal growth was seen; details: for growth inhibition test, inhibitory concentration, CG: tested at 1, 5, 30, 60 μg/mL, 7 days; for growth on plate, CG: 60 μg/mL, 7 days at 30° C.
Method: as §1, §2, §3, §4

[6] = test system: Chaetomium globosum CG572; assay: Fungal growth on MEA plates with furanone; format: cell-based; design: key to growth on plate, CG572: −: No growth was observed; +: normal growth was seen; details: for growth inhibition test, inhibitory concentration, CG572: tested at 1, 5, 30, 60 μg/mL, 7 days; for growth on plate, CG572: 60 μg/mL, 7 days at 30° C.
Method: as §1, §2, §3, §4

[7] = test system: Trametes versicolor strain TV7B2-59; assay: Fungal growth on MEA plates with furanone; format: cell-based; design: key to growth on plate, TV7B2-59: −: No growth was observed; +: normal growth was seen; details: for growth inhibition test, inhibitory concentration, TV7B2-59: tested at 1, 5, 30, 60 μg/mL, 7 days; for growth on plate, TV7B2-59: 60 μg/mL, 7 days at 30° C.
Method: as §1, §2, §3, §4

[8] = test system: Trametes versicolor strain TV57MAD277; assay: Fungal growth on MEA plates with furanone; format: cell-based; design: key to growth on plate, TV57MAD277: −: No growth was observed; +: normal growth was seen; details: for growth inhibition test, inhibitory concentration, TV57MAD277: tested at 1, 5, 30, 60 μg/mL, 7 days; for growth on plate, TV57MAD277: 60 μg/mL, 7 days at 30° C.
Method: as §1, §2, §3, §4

[9] = test system: E. coli; assay: E. coli growth inhibition (results not shown); format: cell-based
[10] = test system: six fungal strains (Gloeophyllum trabeum, Chaetomium globosum, Trametes versicolor); assay: Fungal growth on MEA plates with furanone, statements for all six strains; format: cell-based; details: for growth inhibition of the six fungal strains, comparison: 1 to 60 μg/mL
Method: as §1, §2, §3, §4

[11] = test system: Candida albicans strain SC5341; assay: C. albicans growth curves in SD medium with furanones (96-well plates, OD600); format: cell-based; details: tested 2.5, 5, 10, 20 μg/mL
Method: To evaluate the effects of furanones on fungal growth, C. albicans was grown in a synthetic dextrose (“SD”) medium supplemented with 0, 2.5, 5, 10, or 20 μg/mL of one of eight different brominated furanones and […] furanones (BF1, BF8, BF9, BF11, BF12, BF14, NF1, NF2, or NF3).
The Candida albicans strain SC5341 used in this study was provided by Dr. Sean Palecek from the University of Wisconsin-Madison. C. albicans was routinely grown overnight at 30° C. and shaken at 200 rpm in a SD medium containing 0.67% (wt/vol) yeast nitrogen base without amino acids and 2% (wt/vol) dextrose, which was buffered with 0.165 M morpholinepropanesulfonic acid (MOPS, Sigma), and pH-adjusted to 7.0 with solid NaOH. The overnight culture was then sub-cultured in 25 mL of fresh SD medium to an initial optical density at 600 nm (OD600) of 0.005 and grown till the OD600 reached 1.0. The OD600 values were measured using a Spectronic GENESYS 5 UV-Vis spectrophotometer (Thermo Fisher Scientific®, Waltham, Mass.). This culture was used to inoculate sterile 96-well plates (Costar® No. 9017, Corning®, Corning, N.Y.) containing SD medium supplemented with furanones at different concentrations (0, 2.5, 5, 10, 20 μg/mL) to an OD600 of 0.06 in at least duplicates. The BF1, 8, 9, 11, 12, 14 and NF1-3 compounds were dissolved in ethanol at a concentration of 20 mg/mL. The BF10 compound was dissolved in methanol at a concentration of 20 mg/mL. The amounts of methanol and ethanol were adjusted to be the same for each sample to eliminate the effects of solvents. The samples were then incubated at 30° C. with shaking at 200 rpm, and the OD600 in each well was measured at 0, 4, 7, 17, and 42 hours after inoculation, using an ELx808™ Absorbance Microplate Reader (BioTek Instruments® Inc., Winooski, Vt.).

Row | SMILES | inhibitory effect on planktonic growth ([1]; 30 μg/mL) | inhibition of biofilm formation ([2]; 30 μg/mL) | inhibition of biofilm formation ([2]; 60 μg/mL) | growth inhibition test, inhibitory concentration, GT598 [3] | growth inhibition test, inhibitory concentration, GT599 [4] | growth inhibition test, inhibitory concentration, CG [5] | growth inhibition test, inhibitory concentration, CG572 [6] | growth inhibition test, inhibitory concentration, TV7B2-59 [7] | growth inhibition test, inhibitory concentration, TV57MAD277 [8] | further results
1 | CC1=CC(C)OC1=O (stereo not drawn) [NF3, 3,5-Dimethylfuran-2(5H)-one, reference compound] | did not exhibit significant inhibitory effects |  |  |  |  |  |  |  |  | 
2 | CC1=C(Br)C(C(Br)Br)OC1=O (stereo not drawn) [BF13, 4-bromo-5-(dibromomethyl)-3-methylfuran-2(5Br)-one] | did not exhibit significant inhibitory effects | significantly inhibited | significantly inhibited | 60 µg/mL | 60 µg/mL | 60 µg/mL | 60 µg/mL | 60 µg/mL | 5 µg/mL | 
3 | CC1=CC(=O)OC1=O [NF1, Citraconic anhydride; IUPAC: 3-methyl-2,5-furandione, reference compound] | did not exhibit significant inhibitory effects |  |  | 60 µg/mL | 60 µg/mL | 60 µg/mL | 60 µg/mL | 60 µg/mL | 60 µg/mL | 
4 | O=C1O/C(=C\Br)C(Br)=C1CBr [BF12, 4-bromo-3-(bromomethyl)-5Z-(bromomethylene)furan-2-one] |  | significantly inhibited | significantly inhibited | 1 µg/mL | 5 µg/mL | 1 µg/mL | 5 µg/mL | 5 µg/mL | 5 µg/mL | growth inhibition of E. coli [9]: significantly inhibit; reduction of specific growth rate compared to furanone-free control ([1]; 30 μg/mL): 91.2%; reduction of specific growth rate compared to furanone-free control ([1]; 60 μg/mL): 100%; growth inhibition of the six fungal strains, comparison [10]: most significant inhibition
5 | CC1=C(Br)C(C(Br)Br)OC1=O (stereo not drawn) [BF14, 4-bromo-5-(dibromomethyl)-3-methylfuran-2(5H)-one] | did not exhibit significant inhibitory effects |  |  |  |  |  |  |  |  | lowest concentration showing growth inhibition [11]: 20 µg/mL; inhibition of biofilm formation ([2]; 30 and 60 μg/mL): non-inhibitory
6 | O=C1C=C(CBr)C(=O)O1 [BF15, 3-(bromomethyl)-2,5-furandione] |  |  |  |  |  |  |  |  |  | growth on plate, GT598 [3]: −; growth on plate, GT599 [4]: −; growth on plate, CG [5]: −; growth on plate, CG572 [6]: −; growth on plate, TV7B2-59 [7]: −; growth on plate, TV57MAD277 [8]: −
7 | O=C1OC(=C(Br)Br)C=C1CBr [BF11, 3-(bromomethyl)-5-(dibromomethylene)furan-2-one] |  | significantly inhibited | significantly inhibited | 1 µg/mL | 5 µg/mL | 5 µg/mL | 5 µg/mL | 5 µg/mL | 5 µg/mL | growth inhibition of E. coli [9]: significantly inhibit; reduction of specific growth rate compared to furanone-free control ([1]; 30 μg/mL): 27.3%; reduction of specific growth rate compared to furanone-free control ([1]; 60 μg/mL): 65.0%; growth on plate, GT598 [3]: −; growth on plate, GT599 [4]: −; growth on plate, CG [5]: −; growth on plate, CG572 [6]: −; growth on plate, TV7B2-59 [7]: −; growth on plate, TV57MAD277 [8]: −; growth inhibition of the six fungal strains, comparison [10]: most significant inhibition
8 | COC1=CC(=O)OC1 [NF2, 4-Methoxy-2(5H)-furanone; IUPAC: 4-methoxy-2(5H)-furanone, reference compound] |  |  |  |  |  |  |  |  |  | growth inhibition of the six fungal strains ([10]; 60 μg/mL, 7 days): did not show any apparent inhibition
